Measurements: US20260027073A1, “USE OF SMALL-MOLECULE COMPOUND HAVING NAPHTHYLAMINE STRUCTURE” (HANGZHOU PHECDAMED CO., LTD., priority 2023, published 2026)

Key:
UUO model mice = experiment: UUO-induced renal fibrosis; type: in vivo
Method: The UUO model is currently the most widely used experimental animal model for studying renal tubulointerstitial fibrosis. By ligating a unilateral ureter to cause obstruction of the renal drainage system, leading to acute alterations in renal function and chronic damage to renal structure, it simulates renal interstitial injury caused by ureteral obstruction, which is common in clinical practice. The modeling was performed as follows: • (1) On the first day of the test, mice were given 50 mg/kg sodium pentobarbital anesthesia, after confirming that the mice were under anesthesia and preparing and disinfecting the skin, an incision of about 1 cm at 1 cm left and below of the costovertebral angle was made, the left side of the kidney was fully exposed and the ureter was sought downward along the renal hilum, and the ureter was ligated with a 6-0 nylon thread, and after ligation, the muscle and the skin layers were sutured layer by layer. In the sham group, only the kidney was exposed, but it was not ligated, and sutured directly. The experiments were divided into a sham group (Sham, oral gavage of vehicle), a model control group (vehicle, oral gavage of vehicle), a TJ01-013 10 mg/kg treatment group ([…]), and the vehicle used is 0.5% CMC-Na, administered at a dose of 10 ml/kg, and the frequency of administration was once a day. The drug was administered continuously for 7 days after UUO surgery, at the endpoint of the test, immediately after the mice were put to death, saline was perfused through the heart until the blood in the kidneys was completely drained and the kidneys were transformed from a dark red color to khaki. The operated kidney on the side was collected, the kidney was cut through the short axis of the kidney, and the kidney tissue samples were stored separately according to the requirements of the test. • (2) Renal histopathology
Kidney tissues were fixed with 4% paraformaldehyde for 48 hours, paraffin-embedded, sectioned at a thickness of 4 μm, and Masson stained. Specific experimental procedures were performed as described previously, and after sectioning and scanning the images, the results were analyzed semi-quantitatively using Image J software.
Total RNA was extracted from kidney tissue samples by Tissue RNA Rapid Extraction Kit, and the concentration and purity of RNA were determined by micro-ultraviolet spectrophotometer, and then operated according to the instruction steps of HiScript® II 1st Strand cDNA Synthesis Kit, the cDNA was reversely transcribed with 1 μg of total amount of […], followed by a 15 ul amplification system, with 5 μL of cDNA, 7.5 μL of 2×SYBR Premix Ex Taq™, 0.3 μL of each of forward and reverse primers, and the rest was supplemented with double-distilled water. The conditions of the Bio-Rad reaction were 95° C. for 5 min, denaturation at 95° C. for 10 seconds, annealing/extension at 60° C. for 30 seconds for 40 cycles, and 65° C. for 15 min. The expression of the target gene was calculated by 2-ΔΔCt relative quantification. The Ct value of the target gene was first corrected by the internal reference gene (β-actin), and then compared with the control group to derive the relative expression level. […]

[1] = tested on: LPS-induced sepsis in mice; experiment: LPS-induced sepsis survival; type: in vivo, C57 mice; details: 8th day; 10 mg/kg intraperitoneal once a day; LPS alone about 20%; FIG. 33
Method: A constructed preclinical sepsis model is a LPS-induced sepsis in mice. Injection of purified LPS into mice by intraperitoneal route or intravenous route can lead to activation of the innate immune system and simulate fulminant Gram-negative bacterial infections, the specific modeling method is as follows: 20-25 g C57 mice were selected, and 20 mg/kg LPS was injected intraperitoneally according to the body weight (the LPS was dissolved with PBS), and the experiment was divided into three groups, a model control group (LPS), a positive control treatment group (prednisone, 10 mg/kg), TJ01-013 treatment group (TJ01-013, 10 mg/kg), the mode of administration was intraperitoneal injection, the volume of administration was 5 ml/kg, the frequency of administration was once a day, and the biological deaths and changes in body weights of the mice were observed and recorded every day, and the mice were regarded as physiologically dead if their body weights decreased by 20% or more compared with that before the administration of LPS. Survival curves were plotted based on deaths observed up to 8 days after administration.

[2] = tested on: chronic obstructive pulmonary disease model rats; experiment: Chronic obstructive pulmonary disease (LPS plus passive smoking); type: in vivo, SD rats; details: gavage 3 weeks, FIG. 62
Method: After 5-week-old male SD rats were adaptively fed for 1 week, they were randomly grouped according to their body weights into five groups, i.e., a normal control group (normal, n=10), a model control group (Control, n=10), a TJ01-013 7.5 mg/kg treatment group (7.5 mg/kg, n=10), a TJ01-013 15 mg/kg treatment group (15 mg/kg, n=10), TJ01-013 30 mg/kg treatment group (30 mg/kg, n=10). The model was replicated using the intra-airway injection of lipopolysaccharide method combined with passive smoking method, which is a recognized model for chronic obstructive pulmonary disease. […] From the second day of modeling, the normal control group and the model control group were treated with vehicle (0.5% CMC-Na) by gavage, and the TJ01-013 treatment group was treated with the corresponding concentration of TJ01-013 in a volume of 10 ml/kg for a total of 3 weeks, and blood was collected from the posterior bulbous vein of the rat after administration, and the blood was centrifuged at 6,000 rpm for 10 min after standing still at room temperature for 30 min, then the upper layer of serum was taken, and the levels of TNFα and CXCL1 in serum were detected by enzyme-linked immunosorbent assay (ELISA).

[3] = vs UUO+Vehicle, western blot, FIG. 31

SMILES: O=C(O)C[S+]([O-])c1cc(NS(=O)(=O)c2ccc(Br)cc2)c2ccccc2c1O (stereo not drawn) [I-1]
- Collagen volume fraction %, renal cortex (Masson) (UUO model mice; 10 mg/kg TJ01-013, no significant effect vs model control 4.67%, FIG. 29): 5.58%
- Collagen volume fraction %, renal cortex (Masson) (UUO model mice; 30 mg/kg TJ01-013, vs model control 4.67%, p<0.05, FIG. 29): 0.61%
- fibrosis in the renal medulla (UUO model mice; FIG. 29): reducing effect on fibrosis
- autophagic vesicles with double-layer or multi-layer membrane structure in the cell (TEM) (UUO model mice; FIG. 32): more autophagic vesicles
- morphology of renal tubular epithelial cells and mitochondria (TEM) (UUO model mice; relative to normal and UUO, FIG. 32): in between the former two
- Col1a1 gene mRNA expression in renal tissue (UUO model mice; vs UUO+Vehicle, FIG. 30): certain tendency to inhibit
- Fn1 gene mRNA expression in renal tissue (UUO model mice; vs UUO+Vehicle, FIG. 30): significantly reduced
- collagen type I (collagen I) protein level in kidney (UUO model mice; [3]): significantly reduced
- fibronectin FN protein level in kidney (UUO model mice; [3]): significantly reduced
- survival rate [1]: 80%
- serum CXCL1 level ([2]; 15 mg/kg and 30 mg/kg): reduce
- serum TNFα level ([2]; 30 mg/kg): reduced the serum TNFα level, and the difference was significant
